Data published in patent publication US20020107193A1, “Therapeutic uses for IP3 receptor-mediated calcium channel modulators” (priority 2000, published 2002).

Key:
NF-κB [1] = assay: EMSA of NF-κB binding activity in cultured primary cortical neurons; assay type: cell-based, rat; details: 6 h; for induction of NF-κB binding activity by the agent alone: cortical neurons, 100 ng/ml TNFα, 100 nM Tg or 20 μM glutamate
Method: Cerebral cortices were removed from embryonic day 18 Sprague-Dawley rats (Harlan, Indianapolis, Ind.). Cells were dissociated as described previously (Mattson et al., 1995, J. Neurochem. 65:1740-1751.) and were seeded into polyethyleneimine-coated 60 mm culture dishes containing Eagle's Minimum Essential Medium supplemented with 26 mM NaHCO3, 40 mM glucose, 20 mM KCl, 1 mM sodium pyruvate, 10% (v/v) heat-inactivated fetal bovine serum (Sigma, St. Louis, Mo.), and 0.001% gentamycin sulfate. After a 3-5 h incubation period to allow for cell attachment, the medium was replaced with 2 ml of Neurobasal Medium with B27 supplements (GIBCO Life Technologies, Grand Island, N.Y.). […] Experimental treatments were performed on 7-to-9-day-old neuronal cultures in which there were approximately 5% contaminating glial cells.
(§1) Total cell extracts were prepared as described (Baeuerle and Baltimore, 1988, Cell 53:211-217). Briefly, cells were harvested, washed twice with ice-cold PBS and lysed for 30 min at 4° C. in Totex buffer (20 mM HEPES, pH 7.9, 350 mM NaC1, 20% glycerol, 1% NP-40, 1 mM MgC12, 0.5 mM EDTA, 0.1 mM EGTA, 5 mM DTT, 0.1% PMSF, 1% aprotinin, 4 μg/ml leupeptin). Samples were centrifuged at 14,000× g for 10 min and aliquots of supernatant were collected and stored at −70° C. until taken for assay. The protein content of the extract (supernatant) was measured by Bradford method (BIO-RAD Laboratories, Ercules, Calif., USA).
After 20 min at room temperature, reaction products were separated on a 7% non-denaturing polyacrylamide gel. Competition experiments were performed by incubating extracts with labeled oligonucleotide probe in the presence of 100-fold molar excess unlabeled NF-KB or CREB oligonucleotide. To characterize the NF-KB complexes, supershift assays were performed. Extracts were preincubated for 45 min at room temperature with antibodies recognizing either p50 or p65 sub-units of NF-κB (Santa Cruz Biotechnology, Santa Cruz, Calif.) or c-Fos (Oncogene Research Products, Cambridge, Mass.). The mixtures were further incubated with ^32P-labeled probe and resolved as described above. Radioactivity of dried gels was detected by exposure to Kodak X-Omat film and images on the developed film were scanned into a computer using a UMAX 1200s scanner. Densitometry was performed using Scion Image software (Scion Inc., Frederick, Md.). Paint Shop Pro software (JASC Inc. Minneapolis, Minn.) was used for preparation of the final figures.
(§2) The possible involvement of endoplasmic reticulum pools of intracellular calcium regulated by IP3 receptors in controlling basal levels of NF-κB was investigated using Xestospongin C (XeC) a specific membrane permeable modulator of IP3-mediated Ca^2+release (Gafni et al., 1997, Neuron 19:723-733; Hu et al., 1999, J. Biol. Chem. 274:33995-33998), and thapsigargin (Tg), a specific inhibitor of ER calcium/ATPase (Thastrup et al., 1990, Proc. Natl. Acad. Sci. USA 87:2466-2470; Davidson and Varhol, 1995, J. Biol. Chem. 270:11731-11734.). Cultured primary cortical neurons were treated with either 1 μM XeC, 100 nM Tg or vehicle for 6 h and protein extracts were analyzed for NF-κB binding activity by EMSA electrophoresis.

CREB [2] = assay: EMSA of CREB binding activity in cultured primary cortical neurons; assay type: cell-based, rat
Method: Cerebral cortices were removed from embryonic day 18 Sprague-Dawley rats (Harlan, Indianapolis, Ind.). Cells were dissociated as described previously (Mattson et al., 1995, J. Neurochem. 65:1740-1751.) and were seeded into polyethyleneimine-coated 60 mm culture dishes containing Eagle's Minimum Essential Medium supplemented with 26 mM NaHCO3, 40 mM glucose, 20 mM KCl, 1 mM sodium pyruvate, 10% (v/v) heat-inactivated fetal bovine serum (Sigma, St. Louis, Mo.), and 0.001% gentamycin sulfate. After a 3-5 h incubation period to allow for cell attachment, the medium was replaced with 2 ml of Neurobasal Medium with B27 supplements (GIBCO Life Technologies, Grand Island, N.Y.). Previous observations have shown that greater than 80% of the cells that attach in the first few hours after plating will survive longer than 7 days in Neurobasal Medium with no additional neurotrophic factors. Experimental treatments were performed on 7-to-9-day-old neuronal cultures in which there were approximately 5% contaminating glial cells.
as §1, with “USA). […]” for “USA).”
(§3) After 20 min at room temperature, reaction products were separated on a 7% non-denaturing polyacrylamide gel. […] Radioactivity of dried gels was detected by exposure to Kodak X-Omat film and images on the developed film were scanned into a computer using a UMAX 1200s scanner. […]
as §2

IP3 receptor = details: Gafni et al., 1997; cited from earlier work
[3] = test system: IP3 receptors on microsomes; assay: Microsome extract (MSE) effect on cytoplasmic NF-κB binding activity; assay type: biochemical, rat; details: direct activation of IP3 receptors on microsomes with IP3
Method: Cerebral cortices from adult female Sprague-Dawley rats were homogenized (20 strokes at 300 rpm) with a Teflon homogenizer in ice-cold buffer containing 1 mM EDTA, 0.32 M sucrose, 0.1 mM dithiothreitol and 1 mM HEPES as described previously (Chen et al., 1998, Diabetes 47:874-81) and cytoplasmic and microsome fractions were isolated by differential centrifugation. Briefly, tissue fragments and cellular debris were removed by centrifugation at 500 g for 10 min and supernatants were centrifuged at 20,000 g for 20 min to pellet intact mitochondria and nuclei. The supernatant was then centrifuged at 100,000 g for 1 h in order to obtain the cytoplasmic fraction and the microsomal pellet enriched in endoplasmic reticulum and golgi membranes. Microsome extracts (MSE) were prepared by suspending microsomes in 1:100 v/v ice-cold buffer and centrifuging at 100,000× g for 1 hr. Microsomes were then re-suspended in 1:2 v/v volume buffer and treated as described below. At the end of the treatment, the suspension was centrifuged at 100,000 g for 1 h, and supernatants were used as MSE. For experiments involving incubation of MSE with cytoplasmic extract, 3 μl of MSE were added to 10 μl cytoplasmic extract and mixtures were incubated at room temperature for 1 h.
[…] After 1 h at room temperature, samples were examined for NF-κB binding activity.
Indeed, the role calcium plays in this paradigm seems to be as an intraluminal signal.

NF-κB [4] = assay: Cell-free EMSA of NF-κB binding activity in brain cortex cytoplasmic fraction; assay type: biochemical, rat; details: 1 h; calcium 1 μM to 10 mM; 10 μM BAPTA-AM alone or with 10 μM calcium
Method: as §1, with “USA). […]” for “USA).”
as §3

CREB [5] = assay: Cell-free EMSA of CREB binding activity in brain cortex cytoplasmic fraction; assay type: biochemical, rat; details: calcium 10 μM, 100 μM and 1 mM, 1 h
Method: as §1, with “USA). […]” for “USA).”
as §3

tumor necrosis factor α [TNFα, reference compound]
induction of NF-κB binding activity by the agent alone (NF-κB [1]): statistically significant (p<0.05) enhancement | binding activity of CREB, agent alone (CREB [2]; cortical neurons, XeC 30 min pretreatment, 100 ng/ml TNFα 6 h, FIG. 2a): neither TNFα nor XeC alone affected the binding activity of CREB

O[C@@]12CCCCCC[C@H]3CCN4CCC[C@H](CCCCCC[C@H]5CCN(CCC1)[C@@H]2O5)[C@H]4O3 [XeD]
block of IP3-mediated calcium release (IP3 receptor): potent blockers

O=P(O)(O)O[C@@H]1[C@H](O)[C@H](O)[C@@H](OP(=O)(O)O)[C@H](OP(=O)(O)O)[C@H]1O [IP3, inositol-1,4,5 triphosphate, reference compound]
NF-κB stimulating properties of MSE from treated microsomes [3]: NF-κB stimulating properties similar to that seen with Tg

[Ca+2] [calcium]
NF-κB binding activity in cytoplasmic fraction (NF-κB [4]): none of the calcium concentrations used increased NF-κB binding activity | CREB binding activity in cytoplasmic fraction (CREB [5]): greatly enhanced

CC(=O)OCOC(=O)CN(CC(=O)OCOC(C)=O)c1ccccc1OCCOc1ccccc1N(CC(=O)OCOC(C)=O)CC(=O)OCOC(C)=O [BAPTA-AM]
NF-κB binding activity in cytoplasmic fraction (NF-κB [4]): had no affect

C1CCC[C@H]2CCCN3CC[C@H](CCCCCC[C@H]4CCCN5CC[C@H](CC1)O[C@H]45)O[C@H]23 [ArB, Araguspongine B]
block of IP3-mediated calcium release (IP3 receptor): potent blockers

C/C=C(/C)C(=O)O[C@H]1C(C)=C2[C@H]([C@@H]1OC(=O)CCCCCCC)[C@@](C)(OC(C)=O)C[C@H](OC(=O)CCC)[C@@]1(O)[C@H]2OC(=O)[C@@]1(C)O [Tg, thapsigargin, reference compound]
induction of NF-κB binding activity by the agent alone (NF-κB [1]): Induction of NF-κB binding activity was observed | basal NF-κB binding activity relative to control levels (NF-κB [1]; cultured primary cortical neurons, 1 μM XeC or 100 nM Tg, EMSA): statistically significant (p<0.05) elevation | CREB binding activity (CREB [2]; cultured primary cortical neurons, 6 h, 1 μM XeC or 100 nM Tg, data not shown): slightly augmented CREB binding activity; however, this was not statistically significant

O[C@@]12CCCCCC[C@H]3CCN4CCC[C@@H](CCCCCC[C@H]5CCN(CCC1)[C@@H]2O5)[C@H]4O3 [DMXeB, demethylxestospongin B]
block of IP3-mediated calcium release (IP3 receptor): potent blockers
